Reference: patent US11147807B2, “Pharmaceutical composition containing DUSP1 inhibitor” (INDUSTRY-UNIVERSITY COOPERATION FOUNDATION HANYANG …, priority 2017, dated 2021)
Like-named read-outs stand apart in the source and are kept apart here.

Experiments:
[1] = biological target: T1, DUSP1 enzyme (activation domain, amino acid residues 166-316) (Homo sapiens, UniProt P28562); assay: DUSP1 activity inhibitory potency, fluorescence enzyme assay with DiFMUP substrate; format: biochemical; conditions: 50 nM DUSP1 activation domain, 10 μM DiFMUP, 5% DMSO
T1 construct: made in house; host or cells: E. coli BL21
T1 sequence (P28562 166-316): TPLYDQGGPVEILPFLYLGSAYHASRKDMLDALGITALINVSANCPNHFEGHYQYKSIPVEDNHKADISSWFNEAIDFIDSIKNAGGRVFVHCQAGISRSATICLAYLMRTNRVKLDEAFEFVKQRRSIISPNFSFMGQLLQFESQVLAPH
Protocol: The inhibitory potency of the DUSP1 activity on 8 kinds of the compounds screened in Example 1 was measured.
As the assay buffer, 20 mM Tris-HCl (pH 8.0), 0.01% Triton X-100 and 5 mM DTT were used, and a fluorescent substrate of 6,8-difluoro-4-methylumbelliferyl phosphate (DiFMUP) 10 μM was used as the substrate. The DUSP1 enzyme was expressed and purified from the activation domain (amino acid residues 166-316) and was used at 50 nM concentration in the enzyme reaction.
The expression and purification of the activation domain was carried out in the following manner. The DUSP1 activation domain (amino acid residues 166-316) was cloned into the pET28a (Novagen) vector and expressed in E. coli BL21 strain. The E. coli transformed with the expression vector of the DUSP1 activation domain was promoted with 0.1 mM of IPTG (isopropyl β-D-1-thiogalactopyranoside) at 37° C. The E. coli expressed with the DUSP1 activation domain was purified using a nickel affinity column after being crushed with a sonicator. The purified protein was quantified by the Bradford assay and used for the enzyme reaction.
The fluorescence generated by the enzymatic action was measured using a Victor spectrofluorometer (PerkinElmer) with an excitation/emission wavelength of 355 nm/460 nm. From the obtained results, the intermediate suppression value (IC50) was determined according to a 4-parameter logistic method of the Sigmaplot program package (Systat software Inc.), and the measurement results of the DUSP1 enzyme activity inhibitory potency were shown in Table 2 below.

[2] = system: human liver cancer cell line Hep3B; assay: MTT analysis of liver cancer cell growth inhibition; format: cell-based; conditions: 96 hours, unit assumed
Protocol: (§1) The MTT analysis was performed to confirm the potency of inhibiting the growth of liver cancer cells of the DUSP1 inhibitor compound of the present invention.
(§2) A human liver cancer cell line Hep3B was cultured in DMEM, 10% FBS, 1% Anti-anti (Gibco) and prepared in a 96-well plate at a density of 7,000 cells/well. A normal hepatocyte line BNL-CL2 cell was cultured in DMEM, 10% FBS, 1% Anti-anti (Gibco) and prepared in a 96-well plate at a density of 3,000 cells/well.
(§3) After incubating at 37° C. for 15 hours, Compounds 6 to 8 were treated at the time of medium exchange so that final concentrations of the compounds in the medium become 2.5 μM and 5.0 μM, respectively, and the treatment conditions were adjusted so that the final DMSO concentration in the medium after treatment of the compounds can be maintained to 0.5%.
(§4) After 96 hours, a cell growth rate was measured using the Roche Cell […] Assay I (MTT) Kit. 10 μL of the MTT solution was added to each of 100 μL wells to a final concentration of 0.5 mg/ml, and then incubated at 37° C. for 4 hours and 100 μL of the solubilization buffer provided in the Kit was added.

[3] = system: PC12 neuron; assay: Neurite outgrowth assay with NGF; format: cell-based; conditions: PC12, phase contrast microscope, 72 hours
Protocol: The Neurite outgrowth assay was carried out with PC12 neuron by appropriately modifying the protocol described in Ishima et al., (2015) Potentiation of neurite outgrowth by brexpiprazole, a novel serotonin-dopamine activity modulator: A role for serotonin 5-HT1A and 5-HT2A receptors. Eur. Neuropsychopharm. 25, 505-511.
The PC12 neurite cells were distributed by the Korea Cell Line Bank (Seoul National University in Korea) and prepared in a 96-well plate at a density of 7,000 cells/well. The cell culture was performed in Dulbeco's Modified Eagle's Media (DMEM), 10% FBS and 1% Anti-anti (Gibco).

[4] = system: normal hepatocyte line BNL-CL2; assay: MTT analysis on normal hepatocyte line; format: cell-based; conditions: 96 hours; for cell growth rate (MTT), BNL-CL2 cell line, compound concentration 5.0 μM: BNL-CL2, 5.0 μM, unit assumed
Protocol: as §1, §2, §3, §4

[5] = system: human liver cancer cell line Hep3B xenograft; assay: Xenograft assay for tumor suppression; format: in vivo; conditions: Hep3B xenograft in nude mouse, two intratumoral doses 4 days apart, measured 4 days after second dose; FIG. 4
Protocol: Using a xenograft assay method, it was confirmed whether the DUSP1 inhibitor of the present invention has the potency of inhibiting the cell growth of a liver cancer.
A human liver cancer cell line Hep3B of 1×10^7 was injected into the subcutaneous layer of the back of a nude mouse in DMEM medium, and then when the cell line was 200 to 500 mm^3 in size, it was extracted and inserted into the subcutaneous layer of the back of a new nude mouse in the size of 5×5×5 mm.
The primary and secondary compounds 7 were administered intratumorally at concentrations of 3 μg and 6 μg, respectively, and the primary and secondary compounds 8 were administered intratumorally at concentrations of 2 μg and 4 μg, respectively.

[6] = biological target: T1, DUSP1 enzyme (activation domain, amino acid residues 166-316); conditions: comparison value quoted in text; read-out: IC50 value of known selective DUSP1 inhibitor; cited from earlier work

IC50 [1] [µM]	SMILES	cell growth rate (MTT), BNL-CL2 cell line, compound concentration […] [4]	other results
5.1	CC(C)C(=O)c1c(Nc2cc(Cl)cc(Cl)c2)[nH]c2c(Cl)ccc([N+](=O)[O-])c2c1=O [Compound 1]	–	–
7.5	CC(=O)c1c(Nc2ccc(Cl)cc2Cl)[nH]c2c(Cl)ccc(F)c2c1=O [Compound 3]	–	–
6.1	CC(=O)c1c(Nc2ccc(Br)cc2Br)[nH]c2c(Cl)ccc(F)c2c1=O [Compound 4]	–	–
4.1	O=C(c1c(Nc2cc(Cl)cc(Cl)c2)[nH]c2c(Cl)ccc([N+](=O)[O-])c2c1=O)C1CC1 [Compound 5]	–	–
4.2	CC(=O)c1c(Nc2cc(C(F)(F)F)cc(C(F)(F)F)c2)[nH]c2c(Cl)ccc(F)c2c1=O [Compound 6]	111	cell growth rate (MTT), HEP3B cell line, compound concentration 5.0 μM [2]: 14%; induction of neurite outgrowth [3]: shape of neurites stretching from the cell can be confirmed; cell growth rate (MTT), BNL-CL2 cell line, compound concentration 5.0 μM [4]: 8%
3.5	CC(C)CC(=O)c1c(Nc2cc(Cl)cc(Cl)c2)[nH]c2c(Cl)ccc([N+](=O)[O-])c2c1=O [Compound 7]	156	tumor size reduction [5]: about 70%
4.8	CC(C)CC(=O)c1c(Nc2cccc(Cl)c2Cl)[nH]c2c(Cl)ccc([N+](=O)[O-])c2c1=O [Compound 8]	139	tumor size reduction [5]: about 85%; cell growth rate (MTT), HEP3B cell line, compound concentration 5.0 μM [2]: 16%; cell growth rate (MTT), BNL-CL2 cell line, compound concentration 5.0 μM [4]: 54%
–	C[n+]1cc2c3c(ccc2c2ccc4cc5c(cc4c21)OCO5)OCO3 [Sanguinarin]	–	IC50 [6]: 10 µM
